Assay results reported in publication PMC3175280 (Neurochemistry international, 2011).
“And” between values parts separate entries of the source, which are not always exact repeats. Equal values may be shown once.

What was measured:
[1] = target: T1, S299Cα1β1γ2S GABAA receptors (Rattus norvegicus, UniProt P15431+P18508+P62813, S325C); experiment: Substituted cysteine accessibility; type: cell-based; conditions: for reduction of subsequent ALLO induced current: 0.5 mM pCMBS added with 5 nM ALLO; for inhibition of subsequent ALLO induced current: 0.5 mM pCMBS added with 100 nM ALLO
[2] = target: T1, S299Cα1β1γ2S GABAA receptors; experiment: Steroid potentiation of submaximal GABA current, S299C receptors; type: cell-based; conditions: not shown for THDOC
[3] = target: T2, wt α1β1γ2S GABAA receptors (Rattus norvegicus, UniProt P15431+P18508+P62813); experiment: Steroid activation; type: cell-based
[4] = target: T2, wt α1β1γ2S GABAA receptors; type: cell-based; conditions: 0.5 μM ALLO, about EC30, n=3
[5] = target: T1, S299Cα1β1γ2S GABAA receptors; experiment: Extreme low dose assay; type: cell-based; conditions: for co-application current, scaled to the added currents = 1 / added separate currents, scaled: n=4; for difference between co-applied and added currents: not significant
[6] = target: T1, S299Cα1β1γ2S GABAA receptors; experiment: Steroid activation; type: cell-based; conditions: for current passed, % of 1 mM GABA current: representative trace; for first peak maximal current (curve fit), % of maximal (1 mM GABA) current: first (low concentration) peak of the bimodal dose response; for second peak maximal current (curve fit), % of maximal (1 mM GABA) current: second (high concentration) peak of the bimodal dose response
[7] = system: α1S299C containing GABAA receptors; conditions: ref Williams and Akabas 1999, 2000, 2002; cited from earlier work
[8] = target: T1, S299Cα1β1γ2S GABAA receptors; experiment: Blocking ALLO-induced current with isoallopregnanolone; type: cell-based
[9] = target: wild type α1β1γ2S GABAA receptors (Rattus norvegicus, UniProt P15431+P18508+P62813); experiment: P4S dose response curve, wild type receptors; type: cell-based
[10] = target: T1, S299Cα1β1γ2S GABAA receptors; experiment: P4S dose response curve, S299C receptors; type: cell-based
[11] = system: α1S299C containing GABAA receptors; conditions: preliminary dose response (not shown)
[12] = target: T2, wt α1β1γ2S GABAA receptors; experiment: SCAM with pCMBS on ALLO-induced currents, wt receptors; type: cell-based; conditions: pCMBS added in any concentration of ALLO (not shown)
[13] = target: T1, S299Cα1β1γ2S GABAA receptors; conditions: pCMBS added in the presence of GABA; ref Williams and Akabas 1999; cited from earlier work
[14] = target: T1, S299Cα1β1γ2S GABAA receptors; experiment: Blocking ALLO-induced current with picrotoxin; type: cell-based; conditions: 1 mM PTN co-applied with 5 nM ALLO

T1 sequence (P62813 28-455 S325C): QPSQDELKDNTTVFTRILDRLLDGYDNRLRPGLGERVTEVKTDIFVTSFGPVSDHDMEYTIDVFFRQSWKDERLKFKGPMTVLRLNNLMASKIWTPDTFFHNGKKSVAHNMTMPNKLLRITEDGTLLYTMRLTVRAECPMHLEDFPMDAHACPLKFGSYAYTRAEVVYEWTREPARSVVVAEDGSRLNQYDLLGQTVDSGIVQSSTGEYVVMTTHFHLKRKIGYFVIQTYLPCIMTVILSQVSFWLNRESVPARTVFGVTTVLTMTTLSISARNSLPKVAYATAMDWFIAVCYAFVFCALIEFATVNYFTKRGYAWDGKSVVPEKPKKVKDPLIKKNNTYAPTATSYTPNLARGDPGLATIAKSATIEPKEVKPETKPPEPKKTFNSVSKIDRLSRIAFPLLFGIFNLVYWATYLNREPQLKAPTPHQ
T1 sequence (P15431 26-474): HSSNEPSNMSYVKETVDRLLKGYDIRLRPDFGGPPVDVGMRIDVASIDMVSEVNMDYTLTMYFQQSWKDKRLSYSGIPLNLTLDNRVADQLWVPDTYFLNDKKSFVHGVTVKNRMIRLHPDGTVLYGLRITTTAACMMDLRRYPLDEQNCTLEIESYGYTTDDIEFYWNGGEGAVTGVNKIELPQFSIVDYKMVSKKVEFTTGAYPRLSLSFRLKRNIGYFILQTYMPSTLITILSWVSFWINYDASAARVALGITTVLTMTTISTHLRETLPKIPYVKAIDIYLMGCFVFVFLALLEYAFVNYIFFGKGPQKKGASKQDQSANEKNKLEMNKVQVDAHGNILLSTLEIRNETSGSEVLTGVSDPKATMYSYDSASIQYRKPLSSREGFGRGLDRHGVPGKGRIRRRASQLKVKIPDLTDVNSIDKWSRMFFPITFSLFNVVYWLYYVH
T1 sequence (P18508 39-466): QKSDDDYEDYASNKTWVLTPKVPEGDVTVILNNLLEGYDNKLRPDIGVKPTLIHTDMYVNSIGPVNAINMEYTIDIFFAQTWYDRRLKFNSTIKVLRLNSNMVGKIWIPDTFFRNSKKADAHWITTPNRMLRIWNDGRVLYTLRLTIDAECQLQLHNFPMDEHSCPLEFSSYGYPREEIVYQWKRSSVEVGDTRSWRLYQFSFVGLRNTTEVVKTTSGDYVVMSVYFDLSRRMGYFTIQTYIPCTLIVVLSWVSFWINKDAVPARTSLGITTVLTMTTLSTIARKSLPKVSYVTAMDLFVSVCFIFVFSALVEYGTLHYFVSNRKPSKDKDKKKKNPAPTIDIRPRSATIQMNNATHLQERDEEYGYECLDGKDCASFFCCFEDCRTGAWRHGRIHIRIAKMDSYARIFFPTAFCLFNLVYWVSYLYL
T2 sequence (P62813 28-455): as the sequence (P62813 28-455 S325C) above, with C298S counted along it
T2 sequence (P15431 26-474): as the sequence (P15431 26-474) above
T2 sequence (P18508 39-466): as the sequence (P18508 39-466) above
wild type α1β1γ2S GABAA receptors, sequence (P62813 28-455): as the sequence (P62813 28-455 S325C) above, with C298S counted along it
wild type α1β1γ2S GABAA receptors, sequence (P15431 26-474): as the sequence (P15431 26-474) above
wild type α1β1γ2S GABAA receptors, sequence (P18508 39-466): as the sequence (P18508 39-466) above

Compound: C[C@]12CC[C@@H](O)C[C@@H]1CC[C@@H]1[C@@H]2CC[C@]2(C)C(c3ccccc3)=CC[C@@H]12 [17-PA, (3α,5α)-17-phenylandrost-16-en-3-ol]
- percent change of 100 nM ALLO induced current ([1]; 1 μM 17-PA added with pCMBS, subsequent 100 nM ALLO current): −4 ± 8%

Compound: CC(=O)[C@H]1CC[C@H]2[C@@H]3CC[C@H]4C[C@H](O)CC[C@]4(C)[C@H]3CC[C@]12C [ALLO, 3α-hydroxy-5α-pregnan-20-one]
- potentiation of submaximal GABA current [2]: no significant potentiation
- EC50 [3]: 870 nM
- maximal steroid induced current, % of 1 mM GABA current ([3]; wt receptors, steroid alone, −60 mV): about 43 ± 15%
- potentiation, percent increase of 1 μM GABA current [4]: 120 ± 28%
- co-application current, scaled to the added currents = 1 ([5]; 100 pM ALLO + 100 nM GABA co-applied): 1.21 ± 0.45
- added separate currents, scaled ([5]; 100 pM ALLO alone plus 100 nM GABA alone): 1.0 ± 0.35
- co-application current, scaled to the added currents = 1 ([5]; 5 nM ALLO + 100 nM GABA co-applied): 1.27 ± 0.39
- added separate currents, scaled ([5]; 5 nM ALLO alone plus 100 nM GABA alone): 1.0 ± 0.21
- difference between co-applied and added currents ([5]; 100 nM GABA and 100 pM ALLO): 20%
- difference between co-applied and added currents ([5]; 100 nM GABA and 5 nM ALLO): 27%
- inward current, % of 1 mM GABA current ([6]; 50 pM steroid, no GABA, n=4): 6 ± 4%
- current passed, % of 1 mM GABA current ([6]; 5 nM steroid): approximately 50%
- current passed, % of 1 mM GABA current ([6]; 100 nM steroid): approximately 50%
- EC50 ([6]; EC50, first activation curve, first plateau to valley fit as a separate curve): 0.59 nM
- EC50 ([6]; EC50, second activation curve, second plateau to valley fit as a separate curve): 70 nM
- first peak maximal current (curve fit), % of maximal (1 mM GABA) current [6]: 58 ± 0.25%
- second peak maximal current (curve fit), % of maximal (1 mM GABA) current [6]: 42 ± 0.26%

Compound: NCCCC(=O)O [GABA]
- response of α1S299C containing receptors compared with wild type [7]: near wild type

Compound: CC(=O)[C@H]1CC[C@H]2[C@@H]3CC[C@H]4C[C@@H](O)CC[C@]4(C)[C@H]3CC[C@]12C [ISO, 3β-hydroxy-5α-pregnan-20-one]
- block of ALLO induced current ([8]; 5 nM ISO, 5 nM ALLO): 90 ± 5% and 80–85%
- block of ALLO induced current ([8]; 5 nM ISO, 100 nM ALLO): 86 ± 8% and 80–85%
- block of ALLO induced current ([8]; 100 nM ISO, 5 nM ALLO): 73 ± 4%

Compound: O=S(=O)(O)C1CCNCC1 [P4S, Piperidine-4-sulfonic acid]
- Kd [9]: 110000 ± 37000 nM
- maximal current induced, % of 1 mM GABA current ([9]; wt, n of 3): 61 ± 3.7%
- Kd [10]: 90000 ± 18000 nM
- maximal current induced, % of 1 mM GABA current ([10]; S299C, n of 3): 58 ± 1.6%

Compound: C[C@]12CC[C@@H](O)C[C@@H]1CC[C@@H]1[C@@H]2CC[C@]2(C)[C@@H](C(=O)CO)CC[C@@H]12 [THDOC, 3α,21-hydroxy-5α-pregnan-20-one]
- potentiation of submaximal GABA current [2]: no significant potentiation
- current passed, % of 1 mM GABA current ([6]; 1 nM steroid): more than 50%
- current passed, % of 1 mM GABA current ([6]; 100 nM steroid): approximately 50%
- first peak maximal current (curve fit), % of maximal (1 mM GABA) current [6]: 57 ± 5.3%
- second peak maximal current (curve fit), % of maximal (1 mM GABA) current [6]: 48 ± 0.35%

Compound: CCO [ethanol, Ethanol]
- shift of EC50 versus wt [11]: shift to a higher EC50

Compound: O=S(=O)(O)c1cc[c]([Hg][Cl])cc1 [pCMBS^−, para-chloromercuribenzenesulfonic acid]
- effect on subsequent ALLO induced currents [12]: did not affect
- reduction of subsequent ALLO induced current ([1]; subsequent 5 nM ALLO current): 28 ± 8%
- reduction of subsequent ALLO induced current ([1]; subsequent 100 nM ALLO current): 22 ± 20%
- inhibition of subsequent ALLO induced current ([1]; subsequent 5 nM ALLO current): 63 ± 15%
- inhibition of subsequent ALLO induced current ([1]; subsequent 100 nM ALLO current): 63 ± 15%
- decrease of ALLO current during co-application ([1]; 0.5 mM pCMBS applied simultaneously with 5 nM ALLO): 7 ± 29%
- reduction of ALLO current during co-application ([1]; 0.5 mM pCMBS co-applied with 100 nM ALLO): 62 ± 17%
- percent difference in subsequent ALLO current ([1]; pCMBS added with 1 μM ISO, subsequent 100 nM ALLO current): −71 ± 10%
- percent difference in subsequent ALLO current ([1]; pCMBS co-applied with 100 nM ISO, subsequent 5 nM ALLO current): 3 ± 14%
- effect on subsequent ALLO currents ([1]; pCMBS plus 5 nM ISO, subsequent 5 nM or 100 nM ALLO currents (not shown)): did not affect
- accessibility of S299C to modification [13]: not accessible to be modified

Compound: CC(C)c1cccc(C(C)C)c1O [propofol]
- response of α1S299C containing receptors compared with wild type [7]: near wild type

Compound: Picrotoxin [PTN]
- block of ALLO induced current [14]: 80 ± 20% and ~80%
